According to patent US20100285964A1, “SALTS OF 2-IODO-N-[(4-METHOXY-6-METHYL-1,3, 5-TRIAZINE-2-YL) CARBAMOYL] BENZENESULFONAMIDE, METHOD FOR THE PRODUCTION THEREOF AND USE THEREOF AS HERBICIDES AND PLANT GROWTH REGULATORS” (BayerCropScience AG, priority 2007, published 2010):

Assays:
Type in all cases: in vivo
[1] = test system: Matricaria inodora, Papaver rhoeas, Stellaria media and Viola tricolor; assay: Pre-emergence herbicidal action, greenhouse; conditions: pre-emergence method, application rate of 0.08 kg or less of active substance per hectare, scored after 3 to 4 weeks
From the text: Seeds or rhizome pieces of mono- and dicotyledonous weeds were placed in sandy loam in cardboard pots and covered with soil. The compounds according to the invention, formulated in the form of wettable powders or emulsion concentrates, were then applied to the surface of the covering soil in the form of aqueous suspensions or emulsions at an application rate of 100 to 800 l of water/ha (converted), at various dosages.
After the treatment, the pots were placed in a greenhouse and kept under good growth conditions for the weeds. The visual scoring of the damage to the plants or the emergence damage was carried out after the emergence of the test plants after a test period of 3 to 4 weeks, by comparison with untreated controls. As shown by the results, the compounds according to the invention have good herbicidal pre-emergence activity against a broad spectrum of weed grasses and broad-leaved weeds.

[2] = test system: Amaranthus retroflexus, Lolium multiflorum, Abuthilon theophrasti, Matricaria inodora, Ipomoea purpurea, Panicum minor, Stellaria media, Solanum nigrum …; assay: Post-emergence herbicidal action, greenhouse; conditions: post-emergence method, application rate of 0.08 kg or less of active substance per hectare, scored after about 10 to 28 days
Protocol: Seeds or rhizome pieces of monocotyledonous and dicotyledonous weeds were placed in sandy loam in plastic pots, covered with soil and cultivated in a greenhouse under good growth conditions. Three weeks after sowing, the test plants were treated at the three-leaf stage. The compounds according to the invention, formulated as wettable powders or as emulsion concentrates, were sprayed onto the green parts of the plants at various dosages using a water application rate of from 100 to 800 l/ha (converted).

Panicum minor = assay: Post-emergence herbicidal action, field trial (Table A-1); conditions: 20 g of ai/ha (acid equivalent for salts), 3-5-leaf stage, 25 days after application, 0%=no control, 100%=complete control
From the text: (§1) In a direct comparison, under field trial conditions (time of application 3-5-leaf stage of the weeds examined), the activities of the weed control of the free acid “2-iodo-N-[(4-methoxy-6-methyl-1,3,5-triazin-2-yl)carbamoyl]benzenesulfonamide” known from DE 27 15 786 were compared to individual salts according to the invention of 2-iodo-N-[(4-methoxy-6-methyl-1,3,5-triazin-2-yl)carbamoyl]benzenesulfonamide (compound I-3 (potassium salt of 2-iodo-N-[(4-methoxy-6-methyl-1,3,5-triazin-2-yl)carbamoyl]benzenesulfonamide) and 1-4 (magnesium salt of 2-iodo-N-[(4-methoxy-6-methyl-1,3,5-triazin-2-yl)carbamoyl]benzenesulfonamide)), evaluation being carried out 25 days after application. With respect to the activity, both a representative of a monocotyledonous weed (Panicum minor) and a representative of a dicotyledonous weed (Solanum nigrum) were scored according to the scheme below:
(§2) 0%=no control 100%=complete control

Solanum nigrum = assay: as above; conditions: 20 g of ai/ha (acid equivalent for salts), 3-5-leaf stage, 25 days after application, 0%=no control, 100%=complete control
From the text: as §1, §2

Chenopodium album = assay: Post-emergence herbicidal action, outdoor trial (Table A-2); conditions: 2-4-leaf stage, 28 days after application
From the text: (§3) In a further direct comparison, under outdoor trial conditions (time of application 2-4-leaf stage of the weeds examined), the activities of the weed control of the free acid “2-iodo-N-[(4-methoxy-6-methyl-1,3,5-triazin-2-yl)carbamoyl]benzene-sulfonamide” known from DE 27 15 786 were compared to the inventive Na^+ salt of 2-iodo-N-[(4-methoxy-6-methyl-1,3,5-triazin-2-yl)carbamoyl]benzenesulfonamide (compounds I-2 according to the invention) at various application rates, evaluation being carried out 28 days after application. With respect to the activity, the weeds Chenopodium album, Fagopyran repens and Pennisetum glauca were scored according to the scheme below:
as §2

Fagopyran repens = assay: as above; conditions: 2-4-leaf stage, 28 days after application
From the text: as §3, §2

Pennisetum glauca = assay: as above; conditions: 30 g of ai/ha (acid equivalent for salt), 2-4-leaf stage, 28 days after application
From the text: as §3, §2

broad bean (Vicia faba) = assay: Replanting behavior, crop sown in treated soil; conditions: scored after four weeks
Protocol: (§4) In further tests, various dosages of the test substances were worked into the soil. Subsequently, various crop plants were sown in plastic pots filled with the treated soil and cultivated in a greenhouse using a day/night rhythm of 22° C./14° C. After four weeks, the plants were scored according to the scheme below.
(§5) 0%=no damage 100%=complete damage

[3] = test system: oilseed rape (Brassica napus); assay: Replanting behavior, crop sown in treated soil; conditions: scored after four weeks
Protocol: as §4, §5

sugar beet = assay: Replanting behavior, crop sown in treated soil; conditions: scored after four weeks
Protocol: as §4, §5

[4] = 15 g of ai/ha (acid equivalent for salt)
[5] = 30 g of ai/ha (acid equivalent for salt)
[6] = 0.1 g of ai/ha worked into the soil
[7] = 0.5 g of ai/ha worked into the soil
[8] = 1.9 g of ai/ha worked into the soil
[9] = 7.5 g of ai/ha worked into the soil
[10] = 30 g of ai/ha worked into the soil, 0%=no damage, 100%=complete damage

## 2-Iodo-N-[(4-methoxy-6-methyl-1,3,5-triazin-2-yl)carbamoyl]benzenesulfonamide tetrabutylammonium salt [Compound I-18]
[1]
  herbicidal activity, pre-emergence (visual scoring): very good herbicidal activity
[2]
  herbicidal activity, post-emergence (visual scoring): very good herbicidal activity

## 2-Iodo-N-[(4-methoxy-6-methyl-1,3,5-triazin-2-yl)carbamoyl]benzenesulfonamide tetraethylammonium salt [Compound I-12]
[1]
  herbicidal activity, pre-emergence (visual scoring): very good herbicidal activity
[2]
  herbicidal activity, post-emergence (visual scoring): very good herbicidal activity

## COc1nc(C)nc(NC(=O)NS(=O)(=O)c2ccccc2I)n1 [2-Iodo-N-[(4-methoxy-6-methyl-1,3,5-triazin-2-yl)carbamoyl]benzenesulfonamide, reference compound]
Panicum minor
  Panicum minor control in %: 0%
Solanum nigrum
  Solanum nigrum control in %: 70%
Chenopodium album; [4]
  Chenopodium album Control in %: 90%
Chenopodium album; [5]
  Chenopodium album Control in %: 98%
Fagopyran repens; [4]
  Fagopyran repens Control in %: 25%
Fagopyran repens; [5]
  Fagopyran repens Control in %: 40%
Pennisetum glauca
  Pennisetum glauca Control in %: 80%

## COc1nc(C)nc(NC(=O)NS(=O)(=O)c2ccccc2I)n1.[Li] [Compound I-1, 2-Iodo-N-[(4-methoxy-6-methyl-1,3,5-triazin-2-yl)carbamoyl]benzenesulfonamide lithium salt]
[1]
  herbicidal activity, pre-emergence (visual scoring): very good herbicidal activity
[2]
  herbicidal activity, post-emergence (visual scoring): very good herbicidal activity

## COc1nc(C)nc(NC(=O)NS(=O)(=O)c2ccccc2I)n1.[Na] [Compound I-2, 2-Iodo-N-[(4-methoxy-6-methyl-1,3,5-triazin-2-yl)carbamoyl]benzenesulfonamide sodium salt]
[1]
  herbicidal activity, pre-emergence (visual scoring): very good herbicidal activity
[2]
  herbicidal activity, post-emergence (visual scoring): very good herbicidal activity
Chenopodium album; [4]
  Chenopodium album Control in %: 93%
Chenopodium album; [5]
  Chenopodium album Control in %: 100%
Fagopyran repens; [4]
  Fagopyran repens Control in %: 30%
Fagopyran repens; [5]
  Fagopyran repens Control in %: 45%
Pennisetum glauca
  Pennisetum glauca Control in %: 85%
Broad bean (Vicia faba); [6]
  Vicia faba damage in %: 2.5%
Broad bean (Vicia faba); [7]
  Vicia faba damage in %: 2.5%
Broad bean (Vicia faba); [8]
  Vicia faba damage in %: 2.5%
Broad bean (Vicia faba); [9]
  Vicia faba damage in %: 49%
Broad bean (Vicia faba); [10]
  Vicia faba damage in %: 93%
[3]; [6]
  Brassica napus damage in %: 0%
[3]; [7]
  Brassica napus damage in %: 1%
[3]; [8]
  Brassica napus damage in %: 29%
[3]; [9]
  Brassica napus damage in %: 83%
[3]; [10]
  Brassica napus damage in %: 94%
Sugar beet; [6]
  Sugar beet damage in %: 0%
Sugar beet; [7]
  Sugar beet damage in %: 1%
Sugar beet; [8]
  Sugar beet damage in %: 61%
Sugar beet; [9]
  Sugar beet damage in %: 85%
Sugar beet; [10]
  Sugar beet damage in %: 92%

## COc1nc(C)nc(NC(=O)NS(=O)(=O)c2ccccc2I)n1.[K] [Compound I-3, 2-Iodo-N-[(4-methoxy-6-methyl-1,3,5-triazin-2-yl)carbamoyl]benzenesulfonamide potassium salt]
[1]
  herbicidal activity, pre-emergence (visual scoring): very good herbicidal activity
[2]
  herbicidal activity, post-emergence (visual scoring): very good herbicidal activity
Panicum minor
  Panicum minor control in %: 30%
Solanum nigrum
  Solanum nigrum control in %: 84%

## COc1nc(C)nc(NC(=O)NS(=O)(=O)c2ccccc2I)n1.[Mg] [Compound I-4, 2-Iodo-N-[(4-methoxy-6-methyl-1,3,5-triazin-2-yl)carbamoyl]benzenesulfonamide magnesium salt]
[1]
  herbicidal activity, pre-emergence (visual scoring): very good herbicidal activity
[2]
  herbicidal activity, post-emergence (visual scoring): very good herbicidal activity
Panicum minor
  Panicum minor control in %: 48%
Solanum nigrum
  Solanum nigrum control in %: 85%

## COc1nc(C)nc(NC(=O)NS(=O)(=O)c2ccccc2I)n1.NCCO [Compound I-19, 2-Iodo-N-[(4-methoxy-6-methyl-1,3,5-triazin-2-yl)carbamoyl]benzenesulfonamide-(2-hydroxyeth-1-yl)ammonium salt]
[1]
  herbicidal activity, pre-emergence (visual scoring): very good herbicidal activity
[2]
  herbicidal activity, post-emergence (visual scoring): very good herbicidal activity
